From PMC7312458, “The Structural Basis of the Binding of Various Aminopolycarboxylates by the Periplasmic EDTA-Binding Protein EppA from Chelativorans sp. BNC1” (International Journal of Molecular Sciences, 2020)
“And” between values parts separate entries of the source, which are not always exact repeats. Equal entries are not always repeated. Where two headings read alike, the source gives them in different places.

Legend:
EppA [1] = target: T1, EppA (Chelativorans sp. BNC1, UniProt Q11H97); test: Isothermal titration calorimetry of wild-type EppA with chelators and metal chelates; format: binding
EppA [2] = target: T1, EppA; settings: earlier report; cited from earlier work
K470A EppA mutant = K470A EppA mutant (Chelativorans sp. BNC1, UniProt Q11H97, K470A); test: biochemical
Method: (§1) All primers were ordered from Invitrogen (Carlsbad, CA, USA).
(§2) Isothermal calorimetric titrations were performed in a MicroCal iTC200 (Malvern Panalytical Ltd.; Malvern, UK). All titrations were performed at 25 °C and stirred at 750 rpm. […] EppA–ligand binding curves were corrected for heats of dilution by subtracting reference titrations of ligands at the same concentrations into a buffer without EppA. Data were fitted to a single-site model as implemented into the Origin 7 MicroCal Data Analysis software analysis package (Malvern Panalytical Ltd.; Malvern, UK) and then plotted in Excel.

R56A EppA mutant = R56A EppA mutant (Chelativorans sp. BNC1, UniProt Q11H97, R56A); test: biochemical
Method: as §1, §2

R480A EppA mutant = R480A EppA mutant (Chelativorans sp. BNC1, UniProt Q11H97, R480A); test: biochemical
Method: as §1, §2

R74A EppA mutant = R74A EppA mutant (Chelativorans sp. BNC1, UniProt Q11H97, R74A); test: biochemical
Method: as §1, §2

[3] = ITC, wild-type EppA, 25 °C, single replicate, n.b. = no binding
[4] = ITC, wild-type EppA, 25 °C, single-site model, single replicate, n.b. = no binding

R480A EppA mutant, sequence (Q11H97 27-563, stated change not applied): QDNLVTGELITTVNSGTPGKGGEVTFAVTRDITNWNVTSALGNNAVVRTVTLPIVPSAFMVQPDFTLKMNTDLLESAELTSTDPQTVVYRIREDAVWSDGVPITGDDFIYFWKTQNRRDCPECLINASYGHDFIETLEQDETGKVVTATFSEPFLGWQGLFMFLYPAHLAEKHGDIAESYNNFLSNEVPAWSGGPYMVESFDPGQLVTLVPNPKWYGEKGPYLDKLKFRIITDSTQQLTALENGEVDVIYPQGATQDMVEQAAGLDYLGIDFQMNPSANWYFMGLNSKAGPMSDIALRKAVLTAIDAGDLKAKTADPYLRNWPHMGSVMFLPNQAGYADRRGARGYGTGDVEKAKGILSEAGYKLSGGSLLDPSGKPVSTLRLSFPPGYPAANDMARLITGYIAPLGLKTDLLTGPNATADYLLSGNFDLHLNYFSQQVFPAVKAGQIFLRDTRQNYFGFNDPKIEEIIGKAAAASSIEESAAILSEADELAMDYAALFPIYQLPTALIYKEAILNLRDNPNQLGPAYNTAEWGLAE
T1 sequence (Q11H97 entry or part of it): as the sequence (Q11H97 27-563, stated change not applied) above
K470A EppA mutant, sequence (Q11H97 27-563, stated change not applied): as above
R56A EppA mutant, sequence (Q11H97 27-563, stated change not applied): as above
R74A EppA mutant, sequence (Q11H97 27-563, stated change not applied): as above

Compound	∆H (EppA [1]; [3])	∆S (EppA [1]; [3])	Kd (EppA [1]; [4])	∆H (EppA [1])	∆S (EppA [1]) [cal mol^−1 K^−1]	binding by EppA (in words) (EppA [1]; ITC, wild-type EppA)	other results
O=C([O-])CN(CCN(CC(=O)O)CC(=O)O)CC(=O)[O-].[Ba+2] [BaEDTA]	n.b.	n.b.	n.b.	–	–	–	–
O=C(O)CN(CCN(CC(=O)O)CC(=O)O)CC(=O)O.[Ca+2] [CaEDTA]	–	–	–	-12.2 ± 0.159 kJ/mol	16.0	–	binding by EppA (in words) (EppA [1]): bound
O=C([O-])CN(CCOCCOCCN(CC(=O)O)CC(=O)O)CC(=O)[O-].[Ca+2] [CaEGTA]	n.b.	n.b.	n.b.	–	–	not	–
O=C(O)CN(CCN(CC(=O)O)CC(=O)O)CC(=O)O.[Cd+2] [CdEDTA]	-2.32 ± 0.0084 kJ/mol	28.1 cal mol^−1 K^−1	–	–	–	did not bind	–
O=C([O-])CN(CCN(CC(=O)[O-])CC(=O)[O-])CC(=O)[O-].[Co+2] [CoEDTA]	n.b.	n.b.	n.b.	–	–	did not bind	–
O=C(O)CN(CCN(CC(=O)O)CC(=O)O)CC(=O)O.[Cr+3] [CrEDTA]	–	–	–	-10.77 ± 0.607 kJ/mol	30.5	–	–
O=C([O-])CN(CCN(CC(=O)[O-])CC(=O)[O-])CC(=O)[O-].[Cu+2] [CuEDTA]	n.b.	n.b.	n.b.	–	–	did not bind	–
O=C(O)CNCCNCC(=O)O [EDDA, ethylenediamine-N,N′-diacetate, reference compound]	–	–	–	-3.56 ± 3.74 kJ/mol	26.7	–	Kd (EppA [1]; ITC, wild-type EppA, 25 °C, single-site model, single replicate, n.b. = no binding, read-out: Kd): 0.588 µM and 0.34 µM
O=C(O)CN(CCN(CC(=O)O)CC(=O)O)CC(=O)O [EDTA, ethylenediaminetetraacetate]	–	–	–	-9.552 kJ/mol and -9.552 ± 0.29 kJ/mol and -9.552 ± 0.293 kJ/mol	29	–	binding by EppA (in words) (EppA [2]): binds; Kd (EppA [1]; Kd, ITC, wild-type EppA, 25 °C, single replicate): 0.00952 ± 0.00625 µM; Kd (EppA [1]; Kd, ITC, wild-type EppA, 25 °C, single-site model, single replicate, n.b. = no binding): 0.0095 ± 0.006 µM; Kd (K470A EppA mutant): 0.0271 ± 0.0202 µM; ∆H (K470A EppA mutant; ITC, K470A mutant, 25 °C): -7.832 kJ/mol and -7.832 ± 0.49 kJ/mol; ∆S (K470A EppA mutant; ITC, K470A mutant, 25 °C): 28.3 cal mol^−1 K^−1; reduction in EDTA binding (K470A EppA mutant; K470A vs wild-type EppA): 3 fold; Kd (R56A EppA mutant): 0.161 ± 0.272 µM; ∆H (R56A EppA mutant; ITC, R56A mutant, 25 °C): -7.54 kJ/mol and -7.54 ± 0.615 kJ/mol; ∆S (R56A EppA mutant; ITC, R56A mutant, 25 °C): 25 cal mol^−1 K^−1; reduction in EDTA binding (R56A EppA mutant; R56A vs wild-type EppA): 17 fold; Kd (R480A EppA mutant): 0.0408 ± 0.0265 µM; ∆H (R480A EppA mutant; ITC, R480A mutant, 25 °C): -4.761 kJ/mol and -4.761 ± 0.372 kJ/mol; ∆S (R480A EppA mutant; ITC, R480A mutant, 25 °C): 30 cal mol^−1 K^−1; reduction in EDTA binding (R480A EppA mutant; R480A vs wild-type EppA): 4 fold; Kd (R74A EppA mutant): 0.249 ± 0.382 µM; ∆H (R74A EppA mutant; ITC, R74A mutant, 25 °C): -7.853 kJ/mol and -7.853 ± 0.816 kJ/mol; ∆S (R74A EppA mutant; ITC, R74A mutant, 25 °C): 23.9 cal mol^−1 K^−1; reduction in EDTA binding (R74A EppA mutant; R74A vs wild-type EppA): 26 fold
O=C(O)CN(CCOCCOCCN(CC(=O)O)CC(=O)O)CC(=O)O [EGTA, ethylene glycol-bis(β-aminoethylether)-N,N,N′,N′-tetraacetic acid, reference compound]	-18.16 kJ/mol and -18.2 ± 0.477 kJ/mol	16.40 cal mol^−1 K^−1 and 16.4 cal mol^−1 K^−1	–	–	–	–	–
O=C(O)CN(CCN(CC(=O)O)CC(=O)O)CC(=O)O.[Eu+3] [EuEDTA]	–	–	–	-16.5 ± 0.439 kJ/mol	7.72	–	–
O=C([O-])CN(CCN(CC(=O)[O-])CC(=O)[O-])CC(=O)[O-].[Fe+3] [FeEDTA]	n.b.	n.b.	n.b.	–	–	did not bind	–
O=C(O)CN(CCN(CC(=O)O)CC(=O)O)CC(=O)O.[Mg+2] [MgEDTA]	–	–	–	-16.85 ± 0.155 kJ/mol	16.2	–	–
O=C([O-])CN(CCN(CC(=O)[O-])CC(=O)[O-])CC(=O)[O-].[Ni+2] [NiEDTA]	n.b.	n.b.	n.b.	–	–	did not bind	–
O=C(O)CN(CCN(CC(=O)O)CC(=O)O)CC(=O)O.[Sr+2] [SrEDTA]	–	–	–	-18.38 ± 0.494 kJ/mol	27.1	–	–
O=C(O)CN(CCOCCOCCN(CC(=O)O)CC(=O)O)CC(=O)O.[Sr+2] [SrEGTA]	3.32 ± 0.686 kJ/mol	27.1 cal mol^−1 K^−1	–	–	–	–	–
O=C(O)CN(CCN(CC(=O)O)CC(=O)O)CC(=O)O.[Tb+3] [TbEDTA]	–	–	–	-3.14 ± 0.289 kJ/mol	18.1	–	–
O=C(O)CN(CCN(CC(=O)O)CC(=O)O)CC(=O)O.[Zn] [ZnEDTA]	n.b.	n.b.	n.b.	–	–	did not bind	–
Asp10: decameric polyaspartate (DDDDDDDDDD) [reference compound]	n.b.	n.b.	n.b. ^c	–	–	did not bind	–
MnEDTA	n.b.	n.b.	n.b.	–	–	did not bind	–
